Like-named read-outs stand apart in the source and are kept apart here.
Assays:
U-2932 cells = experiment: Real Time Glo viability screen and validation, Betalutin with PARP or cell cycle kinase inhibitors (Examples 4, 7); format: cell-based, human; conditions: U-2932, validation screen, 0-1280 nM
OCI-Ly8 cells = experiment: Cell cycle analysis (PI, Muse flow cytometer); format: cell-based, human; conditions: OCI-Ly8, 1 μM inhibitor + ^177Lu-lilotomab, versus ^177Lu-lilotomab alone
Description: Cells were harvested at 0 […], and fixed in 70% ethanol at -20° C. for at least 3 h. After staining with the Muse® Cell Cycle Assay Kit (Merck Millipore, Molsheim, France) using propidium iodide in the dark at room temperature for 30 min, cell cycle distribution was analyzed using a Muse® flow cytometer. The percentage of cells in the G0/G1, S and G2/M was calculated (mean of three experiments in triplicate) and the effect of WEE-1 and MYT-1 kinase inhibitors on the cell cycle was assessed.

U2932 cells = experiment: Alamar Blue cytotoxicity study; format: cell-based, human; conditions: for IC50: Homo sapiens; for Combination Index (Chou-Talalay): 120 h
Description: Cells were treated with either Humalutin, olaparib or a combination of both and seeded into 96 well-plates. At each time point after treatment, cells were incubated with Alamar Blue (Thermo Fisher, DALL1100) for 4 hours and fluorescence measurements were performed using a multiplate reader Fluoroskan ascent FL to assess cell proliferation and viability. All experiments were done in duplicates using 2 samples in each experiment. Data were normalized to the untreated controls.
(§1) Cells were incubated with 0.25, 0.5, 1, 2.5 or 5 μg/ml of Humalutin in cell culture flasks and incubated at 37° C./5% CO2. After 18-20 hours cells were washed and resuspended in fresh medium. Cell bound activity after washing was measured using a calibrated gamma detector (Cobra II auto-gamma detector, Packard Instrument Company, Meriden, Conn., USA). Cell concentration and viability was also measured after washing using Guava ViaCount Cell Dispersal Reagent for Flow Cytometry (Merck GaA, Darmstadt, Germany) and measured in a Guava EasyCyte 12HT (Merck KGaA, Darmstadt, Germany) to determine how well the cells survived the incubation. Cells were seeded in 96 well plates.
Cells were seeded in 96 well plates pre-coated with from 1 to 100 μM olaparib in 0.2 ml medium and incubated at 37° C./5% CO2 for 72 hours before the cytotoxic effect was measured using alamar blue cell viability assay.
Cells were incubated with either 0, 0.5 μg/ml or 1 μg/ml Humalutin and the same procedure as described before for treatment with humalutin alone and olaparib alone was followed. Concentrations of olaparib used were between 1 and 100 μM.
The Chou-Talalay model was used for synergy calculations using the Compusyn software. R (goodness of fit) was calculated for the individual treatments and should be over 0.90 in in vitro culture experiments in order to use the calculated combination index (CI). The CI is an indication of synergy: 0-0.9 is considered synergy. Synergysm grading was used as described in WO2006004917A2. […]
as §1, with “viability were” for “viability was”, “plates. Alamar blue viability measurements were performed 120 h after seeding.” for “plates.”
Cells were incubated with either 0 (control), 0.5 μg/ml or 1 μg/ml Humalutin for 18 to 20 hours. Cells were then washed and resuspended in fresh medium.

Ramos cells [1] = experiment: Apoptosis induction (Annexin V/7-AAD, Muse flow cytometer); format: cell-based, human; conditions: 6 MBq/mL radiolabelled mAb for 18 h, peak time 72 h
Description: (§2) Cells were harvested at 0, 2 h, 18 h, 1 d, 2 d, 3 d of RIT. At each time point, apoptosis was detected with […] from Merck Millipore (Annexin V Kit with 7-AAD) in the dark for 30 min at room temperature before analysis using Muse® flow cytometer

Rec-1 cells = experiment: as above; format: cell-based, human; conditions: Rec-1, 6 MBq/mL radiolabelled mAb for 18 h, peak time 72 h
Description: as §2

[2] = test system: CD133 and CD44 at the DOHH2 cell surface; experiment: Expression of stem cell markers after RIT (flow cytometry); format: cell-based, human; conditions: DOHH2, 6 MBq/mL for 18 h, up to 9 days post-RIT
Description: Cells were harvested at 0, 2 h, 18 h and each day from 1 d to 10 d of RIT. At each time point, cells were fixed with PFA 4% for 10 minutes, washed twice with PBS and sterilely stored in PBS at 4° C. Stem cell markers were detected with anti-CD133-FITC (clone: AC133, Milteniy) and anti-CD44-APC (clone: IM7, Merck Millipore). 0.5×10^6 cells were saturated for 1 h in PBS-BSA 0.5%. Next cells were centrifuged and incubated with anti-CD133-FITC (2 μL) and anti-CD44-APC (0.125 μg) for 1 h at room temperature in the dark. Finally, cells were rinsed twice and analysed using Gallios® flow cytometer (Beckman Coulter).
For a preliminary study, investigation of the expression of CD133 and CD44 at the surface of cells treated for 18 h with 6 MBq/mL ^177Lu-lilotomab and ^177Lu-rituximab was done.

Ramos cells [3] = experiment: Immunoreactive fraction, one point modified Lindmo method; format: binding, human; conditions: 75 million Ramos cells/ml
Description: The immunoreactivity of the radioimmunoconjugates was measured using Ramos cells and a one point modified Lindmo method. The cell concentration used was 75 million cells/ml. The immunoreactivity of the conjugates was higher than 70%.
The immunoreactivity of the radioimmunoconjugates was measured using Ramos cells and a one point modified Lindmo method (1, 2). The cell concentration used was 75 million cells/ml. The immunoreactivity of the conjugates was higher than 70%.
The immunoreactivity of the radioimmunoconjugates was measured using Ramos cells and a one point modified Lindmo method. The cell concentration used was 75 million cells/ml. The immunoreactivity of the conjugates was higher than 70%).

Molecule: Nc1nc(Nc2ccc(S(N)(=O)=O)cc2)nn1C(=O)c1c(F)cccc1F [JNJ-7706621]
- Effect of monotreatment on proliferation (U-2932 cells): not evident at concentrations below 160 nM

Molecule: C=CCn1c(=O)c2cnc(Nc3ccc(N4CCN(C)CC4)cc3)nc2n1-c1cccc(C(C)(C)O)n1 [MK-1775]
- Proportion of cells in G2/M, inhibitor combined with ^177Lu-lilotomab (OCI-Ly8 cells): reduction of the fraction of G2/M cells

Molecule: CC1(C)CCC(CN2CCN(c3ccc(C(=O)NS(=O)(=O)c4ccc(NCC5CCOCC5)c([N+](=O)[O-])c4)c(Oc4cnc5[nH]ccc5c4)c3)CC2)=C(c2ccc(Cl)cc2)C1 [venetoclax]
- IC50 (U2932 cells; read-out: IC50 at 120 h, U2932, 120 h incubation after seeding): 1140 nM
- IC50 (U2932 cells; U2932, 72 h incubation after seeding, read-out: IC50): 4150 nM
- Combination Index (Chou-Talalay) (U2932 cells; U2932, drug 10 μM + Humalutin 0.5 μg/ml): 0.50
- Combination Index (Chou-Talalay) (U2932 cells; U2932, drug 10 μM + Humalutin 1 μg/ml): 0.09
- Combination Index (Chou-Talalay) (U2932 cells; U2932, drug 40 μM + Humalutin 0.5 μg/ml): 0.91
- Combination Index (Chou-Talalay) (U2932 cells; U2932, drug 40 μM + Humalutin 1 μg/ml): 0.23
- Combination Index (Chou-Talalay) (U2932 cells; U2932, drug 80 μM + Humalutin 0.5 μg/ml): 0.54
- Combination Index (Chou-Talalay) (U2932 cells; U2932, drug 80 μM + Humalutin 1 μg/ml): 0.12
- Combination Index (Chou-Talalay) (U2932 cells; U2932, drug 100 μM + Humalutin 0.5 μg/ml): 0.49
- Combination Index (Chou-Talalay) (U2932 cells; U2932, drug 100 μM + Humalutin 1 μg/ml): 0.07
- Combination Index (Chou-Talalay) (U2932 cells; U2932, venetoclax 0.25 + Humalutin 0.5 μg/ml): 0.02
- Combination Index (Chou-Talalay) (U2932 cells; U2932, venetoclax 0.25 + Humalutin 1 μg/ml): 0.12
- Combination Index (Chou-Talalay) (U2932 cells; U2932, venetoclax 0.5 + Humalutin 0.5 μg/ml): 0.01
- Combination Index (Chou-Talalay) (U2932 cells; U2932, venetoclax 0.5 + Humalutin 1 μg/ml): 0.10
- Combination Index (Chou-Talalay) (U2932 cells; U2932, venetoclax 1 + Humalutin 0.5 μg/ml): 0.03
- Combination Index (Chou-Talalay) (U2932 cells; U2932, venetoclax 1 + Humalutin 1 μg/ml): 0.08
- Combination Index (Chou-Talalay) (U2932 cells; U2932, venetoclax 2.5 + Humalutin 0.5 μg/ml): 0.03
- Combination Index (Chou-Talalay) (U2932 cells; U2932, venetoclax 2.5 + Humalutin 1 μg/ml): 0.06

B1: Lutetium-177 [^177Lu]-lilotomab satetraxetan (conjugate, chains of the INN, looked up)
VH: EIQLQQSGPELVKPGASVKVSCKASGYSFTDYNMYWVKQSHGKSLEWIGYIDPYNGDTTYNQKFKGKATLTVDKSSSTAFIHLNSLTSEDSAVYYCARSPYGHYAMDYWGQGTSVTVSS
VL: DIVMTQSHKLLSTSVGDRVSITCKASQDVSTAVDWYQQKPGQSPKLLINWASTRHTGVPDRFTGSGSGTDYTLTISSMQAEDLALYYCRQHYSTPFTFGSGTKLEIK
modifications: 177Lu satetraxetan chelator conjugate
- Apoptosis level (Ramos cells [1]): 33±8%
- Apoptosis level (Rec-1 cells): 67±18%
- Proportion of cells expressing CD44 and CD133 [2]: strongly increased
- Immunoreactivity (Ramos cells [3]): higher than 70%

From patent US20210106703A1, “RADIOIMMUNOCONJUGATES IN COMBINATION WITH OTHER DRUGS AS TREATMENT AGAINST NHL” (Nordic Nanovector ASA, priority 2017, published 2021)
